From patent US9328112B2, “Tetracyclic CDK9 kinase inhibitors” (AbbVie Inc., priority 2014, dated 2016) come the findings set out here.

pIC50: −log10 of the molar value.

One test has as its system H929 cells. Briefly: Cell viability assay (Cell TiterGlo). The class given is cell-based. The conditions noted are these: Homo sapiens, NCI-H929, 24 hours at 37° C., Cell TiterGlo luminescence. The method, then: The cell viability assay was performed using H929 cells. Cells were seeded in 96-well plates at 10,000 cells/well and, after overnight incubation, treated with compounds in a dose response of 3-fold dilutions from 10 μM to 0.005 μM ([…], 0.1% final DMSO concentration). After 24 hours at 37° C., cell viability was measured using Cell TiterGlo reagent (Promega) with a luminescence reader.
A general note: In ATP-based viability assays light output follows the ATP content of the culture.

The target in the next test is CDK9/Cyclin T1 (Homo sapiens (Human), UniProt P50750). Briefly: CDK9 enzyme assay (LANCE ULight TR-FRET kinase assay). It counts as biochemical. The conditions noted are these: 1000 μM ATP, 100 nM ULight MBP, kinase reaction 1 hour. An outline of the steps: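 TR-FRET readout (ex 320 nm; em 615/665 nm) after 1 h detection with 0.5 nM europium anti-phospho-MBP antibody in 20 mM EDTA stop buffer. Preceding 1 h kinase step: CDK9/Cyclin T1, ULight-MBP substrate at 100 nM, ATP at 1000 μM, compound pre-diluted in DMSO then buffer.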
Sequence of CDK9/Cyclin T1 (P50750 whole entry): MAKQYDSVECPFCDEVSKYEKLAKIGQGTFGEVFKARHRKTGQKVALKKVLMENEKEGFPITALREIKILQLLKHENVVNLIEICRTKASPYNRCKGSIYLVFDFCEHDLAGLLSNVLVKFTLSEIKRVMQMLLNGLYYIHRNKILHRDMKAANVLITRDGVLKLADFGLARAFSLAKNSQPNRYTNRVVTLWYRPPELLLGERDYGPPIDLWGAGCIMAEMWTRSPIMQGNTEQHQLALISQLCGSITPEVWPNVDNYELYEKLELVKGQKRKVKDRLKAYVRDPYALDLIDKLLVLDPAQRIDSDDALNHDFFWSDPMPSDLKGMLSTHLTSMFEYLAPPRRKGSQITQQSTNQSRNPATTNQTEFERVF
Sequence of CDK9/Cyclin T1 (O60563 whole entry partner): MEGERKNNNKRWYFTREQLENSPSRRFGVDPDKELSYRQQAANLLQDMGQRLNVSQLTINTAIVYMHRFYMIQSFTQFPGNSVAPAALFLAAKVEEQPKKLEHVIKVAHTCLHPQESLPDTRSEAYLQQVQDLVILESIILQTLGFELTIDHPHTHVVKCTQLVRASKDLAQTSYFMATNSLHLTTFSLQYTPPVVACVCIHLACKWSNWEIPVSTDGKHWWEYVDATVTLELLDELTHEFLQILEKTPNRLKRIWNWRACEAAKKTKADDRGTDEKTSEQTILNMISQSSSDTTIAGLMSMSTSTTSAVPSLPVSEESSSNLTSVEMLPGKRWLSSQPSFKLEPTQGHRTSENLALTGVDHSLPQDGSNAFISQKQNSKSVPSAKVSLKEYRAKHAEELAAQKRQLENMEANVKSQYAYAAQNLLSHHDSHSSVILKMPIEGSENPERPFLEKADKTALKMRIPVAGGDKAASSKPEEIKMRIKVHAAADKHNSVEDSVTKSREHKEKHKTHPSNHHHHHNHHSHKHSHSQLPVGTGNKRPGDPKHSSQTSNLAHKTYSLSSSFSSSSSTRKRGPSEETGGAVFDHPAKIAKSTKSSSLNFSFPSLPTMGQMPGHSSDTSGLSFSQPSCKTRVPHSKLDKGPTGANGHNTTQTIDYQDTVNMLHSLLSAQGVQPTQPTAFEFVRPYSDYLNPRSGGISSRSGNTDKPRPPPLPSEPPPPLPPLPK

What is called pIC50 is the IC50 on a negative log10 scale, so that one unit is a factor of ten. A higher pIC50 goes with a small IC50. Regarding `CN1Cc2c(C3=CCCNCC3)[nH]c3nccc(c23)-c2cc(F)ccc21` [Example 87, 10-fluoro-7-methyl-5-(2,3,6,7-tetrahydro-1H-azepin-4-yl)-6,7-dihydro-4H-3,4,7-triazadibenzo[cd,f]azulene], the values for the pIC50 in the test with H929 cells and against CDK9/Cyclin T1 were 7.00 and 7.05, respectively.

For `CN(C)C(=O)CN1CCC=C(c2[nH]c3nccc4c3c2CN(C)c2ccc(F)cc2-4)CC1` [Example 88, 2-[4-(10-fluoro-7-methyl-6,7-dihydro-4H-3,4,7-triazadibenzo[cd,f]azulen-5-yl)-2,3,6,7-tetrahydro-1H-azepin-1-yl]-N,N-dimethylacetamide], the pIC50 in the test on H929 cells and at CDK9/Cyclin T1 was 6.82 in each case.

On to `CN1Cc2c(C3=CCCN(S(C)(=O)=O)CC3)[nH]c3nccc(c23)-c2cc(F)ccc21` [Example 89, 10-fluoro-7-methyl-5-[1-(methylsulfonyl)-2,3,6,7-tetrahydro-1H-azepin-4-yl]-6,7-dihydro-4H-3,4,7-triazadibenzo[cd,f]azulene], for which the negative-log IC50 (pIC50) with H929 cells is 6.64; against CDK9/Cyclin T1 it was 6.92.

As for `CN1Cc2c(C3=CCCN(CC(=O)O)CC3)[nH]c3nccc(c23)-c2cc(F)ccc21` [Example 90, [4-(10-fluoro-7-methyl-6,7-dihydro-4H-3,4,7-triazadibenzo[cd,f]azulen-5-yl)-2,3,6,7-tetrahydro-1H-azepin-1-yl]acetic acid], the values for the pIC50 in the test on H929 cells and against CDK9/Cyclin T1 were 5.72 and 6.77, respectively.

In the case of `CN1Cc2c(C3=CCCN(CC(=O)N4CC(O)C4)CC3)[nH]c3nccc(c23)-c2cc(F)ccc21` [Example 91, 2-[4-(10-fluoro-7-methyl-6,7-dihydro-4H-3,4,7-triazadibenzo[cd,f]azulen-5-yl)-2,3,6,7-tetrahydro-1H-azepin-1-yl]-1-(3-hydroxyazetidin-1-yl)ethanone], the negative-log IC50 (pIC50) was 6.66 in the test on H929 cells and 6.74 against CDK9/Cyclin T1.

As to `CN1Cc2c(C3=CCNCC3(C)C)[nH]c3nccc(c23)-c2cc(F)ccc21` [Example 92, 5-(3,3-dimethyl-1,2,3,6-tetrahydropyridin-4-yl)-10-fluoro-7-methyl-6,7-dihydro-4H-3,4,7-triazadibenzo[cd,f]azulene], the results for the negative logarithm of the IC50 (pIC50) in the test with H929 cells and at CDK9/Cyclin T1 were 5.92 and 6.38, respectively.

For `CN1Cc2c(C3=CCCNC3)[nH]c3nccc(c23)-c2cc(F)ccc21` [Example 93, 10-fluoro-7-methyl-5-(1,2,5,6-tetrahydropyridin-3-yl)-6,7-dihydro-4H-3,4,7-triazadibenzo[cd,f]azulene], the values for the pIC50 in the test with H929 cells and against CDK9/Cyclin T1 were 6.96 and 7.34, respectively.

`CN1Cc2c(C3=CC4CN(CC(=O)N(C)C5CC(O)C5)CC4C3)[nH]c3nccc(c23)-c2cc(F)ccc21` (stereo not drawn) [Example 94, 2-[5-(10-fluoro-7-methyl-6,7-dihydro-4H-3,4,7-triazadibenzo[cd,f]azulen-5-yl)-3,3a,4,6a-tetrahydrocyclopenta[c]pyrrol-2 (1H)-yl]-N-(3-hydroxycyclobutyl)-N-methylacetamide]: the negative logarithm of the IC50 (pIC50) with H929 cells was 7.04; against CDK9/Cyclin T1, 7.00.

Consider `CN1Cc2c(C3=CCCN(S(C)(=O)=O)C3)[nH]c3nccc(c23)-c2cc(F)ccc21` [Example 95, 10-fluoro-7-methyl-5-[1-(methylsulfonyl)-1,2,5,6-tetrahydropyridin-3-yl]-6,7-dihydro-4H-3,4,7-triazadibenzo[cd,f]azulene], for which the pIC50 in the test with H929 cells was 5.92; against CDK9/Cyclin T1, 6.89.

As for `CNC(=O)N1CCC=C(c2[nH]c3nccc4c3c2CN(C)c2ccc(F)cc2-4)C1` [Example 96, 5-(10-fluoro-7-methyl-6,7-dihydro-4H-3,4,7-triazadibenzo[cd,f]azulen-5-yl)-N-methyl-3,6-dihydropyridine-1(2H)-carboxamide], the pIC50 is 6.17 in the test with H929 cells and 6.74 against CDK9/Cyclin T1.

For `CN(C)C(=O)CN1CCC=C(c2[nH]c3nccc4c3c2CN(C)c2ccc(F)cc2-4)C1` [Example 97, 2-[5-(10-fluoro-7-methyl-6,7-dihydro-4H-3,4,7-triazadibenzo[cd,f]azulen-5-yl)-3,6-dihydropyridin-1(2H)-yl]-N,N-dimethylacetamide], the pIC50 is 6.24 in the test on H929 cells and 6.38 against CDK9/Cyclin T1.

For the compound `CN1Cc2c(C3=C[C@H]4CC[C@@H](C3)N4CC(=O)N(C)C3CC(O)C3)[nH]c3nccc(c23)-c2cc(F)ccc21` (stereo partly drawn) [Example 98, 2-[(1R,5S)-3-(10-fluoro-7-methyl-6,7-dihydro-4H-3,4,7-triazadibenzo[cd,f]azulen-5-yl)-8-azabicyclo[3.2.1]oct-2-en-8-yl]-N-(3-hydroxycyclobutyl)-N-methylacetamide], the negative logarithm of the IC50 (pIC50) in the test on H929 cells was 6.82; at CDK9/Cyclin T1, 7.14.

Take `CN1Cc2c(C3=CC4CCCC(C3)N4S(C)(=O)=O)[nH]c3nccc(c23)-c2cc(F)ccc21` (stereo not drawn) [Example 99, 10-fluoro-7-methyl-5-[9-(methylsulfonyl)-9-azabicyclo[3.3.1]non-2-en-3-yl]-6,7-dihydro-4H-3,4,7-triazadibenzo[cd,f]azulene]: the pIC50 is 5.59 with H929 cells and 6.40 against CDK9/Cyclin T1.

Take `CNC(=O)N1C2C=C(c3[nH]c4nccc5c4c3CN(C)c3ccc(F)cc3-5)CC1CCC2` (stereo not drawn) [Example 100, 3-(10-fluoro-7-methyl-6,7-dihydro-4H-3,4,7-triazadibenzo[cd,f]azulen-5-yl)-N-methyl-9-azabicyclo[3.3.1]non-2-ene-9-carboxamide]: the figures for the pIC50 with H929 cells and against CDK9/Cyclin T1 were 5.92 and 7.08, respectively.

On to `CN(C)C(=O)CN1C2C=C(c3[nH]c4nccc5c4c3CN(C)c3ccc(F)cc3-5)CC1CCC2` (stereo not drawn) [Example 101, 2-[3-(10-fluoro-7-methyl-6,7-dihydro-4H-3,4,7-triazadibenzo[cd,f]azulen-5-yl)-9-azabicyclo[3.3.1]non-2-en-9-yl]-N,N-dimethylacetamide], for which the pIC50 is 7.04 in the test on H929 cells and 6.96 against CDK9/Cyclin T1.

On to `CN1Cc2c(C3=CC4CCCC(C3)N4C(=O)CC#N)[nH]c3nccc(c23)-c2cc(F)ccc21` (stereo not drawn) [Example 102, 3-[3-(10-fluoro-7-methyl-6,7-dihydro-4H-3,4,7-triazadibenzo[cd,f]azulen-5-yl)-9-azabicyclo[3.3.1]non-2-en-9-yl]-3-oxopropanenitrile], for which the pIC50 is 6.21 in the test on H929 cells and 7.36 on CDK9/Cyclin T1.

As for `CN(CCO)C(=O)CN1C2C=C(c3[nH]c4nccc5c4c3CN(C)c3ccc(F)cc3-5)CC1CCC2` (stereo not drawn) [Example 103, 2-[3-(10-fluoro-7-methyl-6,7-dihydro-4H-3,4,7-triazadibenzo[cd,f]azulen-5-yl)-9-azabicyclo[3.3.1]non-2-en-9-yl]-N-(2-hydroxyethyl)-N-methylacetamide], the figures for the negative logarithm of the IC50 (pIC50) in the test on H929 cells and against CDK9/Cyclin T1 were 7.29 and 7.07, respectively.

In the case of `CN1Cc2c(C3=CC4CCCC(C3)N4CC(=O)N3CCC[C@H]3CO)[nH]c3nccc(c23)-c2cc(F)ccc21` (stereo partly drawn) [Example 104, 2-[3-(10-fluoro-7-methyl-6,7-dihydro-4H-3,4,7-triazadibenzo[cd,f]azulen-5-yl)-9-azabicyclo[3.3.1]non-2-en-9-yl]-1-[(2S)-2-(hydroxymethyl)pyrrolidin-1-yl]ethanone], the figures for the pIC50 in the test with H929 cells and against CDK9/Cyclin T1 were 7.19 and 7.24, respectively.

`CN1Cc2c(C3=CC4CCCC(C3)N4CC(=O)N3CC(O)C3)[nH]c3nccc(c23)-c2cc(F)ccc21` (stereo not drawn) [Example 105, 2-[3-(10-fluoro-7-methyl-6,7-dihydro-4H-3,4,7-triazadibenzo[cd,f]azulen-5-yl)-9-azabicyclo[3.3.1]non-2-en-9-yl]-1-(3-hydroxyazetidin-1-yl)ethanone]: the pIC50 in the test on H929 cells is 6.72; against CDK9/Cyclin T1, 7.01.

For the compound `CN1Cc2c(C3=CC4CCCC(C3)N4CC(=O)N(C)C3CC(O)C3)[nH]c3nccc(c23)-c2cc(F)ccc21` (stereo not drawn) [Example 106, 2-[3-(10-fluoro-7-methyl-6,7-dihydro-4H-3,4,7-triazadibenzo[cd,f]azulen-5-yl)-9-azabicyclo[3.3.1]non-2-en-9-yl]-N-(3-hydroxycyclobutyl)-N-methylacetamide], the pIC50 was 6.89 in the test on H929 cells and 7.18 against CDK9/Cyclin T1.

Regarding `CN(CC(O)CO)C(=O)CN1C2C=C(c3[nH]c4nccc5c4c3CN(C)c3ccc(F)cc3-5)CC1CCC2` (stereo not drawn) [Example 107, N-(2,3-dihydroxypropyl)-2-[3-(10-fluoro-7-methyl-6,7-dihydro-4H-3,4,7-triazadibenzo[cd,f]azulen-5-yl)-9-azabicyclo[3.3.1]non-2-en-9-yl]-N-methylacetamide], the pIC50 in the test with H929 cells and on CDK9/Cyclin T1 was 6.96 each time.

For `CN1Cc2c(C3=CC4CCCC(C3)N4CC(=O)O)[nH]c3nccc(c23)-c2cc(F)ccc21` (stereo not drawn) [Example 108, [3-(10-fluoro-7-methyl-6,7-dihydro-4H-3,4,7-triazadibenzo[cd,f]azulen-5-yl)-9-azabicyclo[3.3.1]non-2-en-9-yl]acetic acid], the values for the pIC50 in the test on H929 cells and against CDK9/Cyclin T1 were 5.92 and 6.96, respectively.

As to `CN1Cc2c(C3=CCN(CC(=O)N(C)C4CC(O)C4)CC3)[nH]c3ncc(F)c(c23)-c2cc(F)ccc21` (stereo not drawn) [Example 109, 2-[4-(1,10-difluoro-7-methyl-6,7-dihydro-4H-3,4,7-triazadibenzo[cd,f]azulen-5-yl)-3,6-dihydropyridin-1(2H)-yl]-N-(3-hydroxycyclobutyl)-N-methylacetamide], the pIC50 is 8.00 in the test on H929 cells and 7.37 on CDK9/Cyclin T1.

`CN(CC(O)CO)C(=O)CN1CC=C(c2[nH]c3ncc(F)c4c3c2CN(C)c2ccc(F)cc2-4)CC1` (stereo not drawn) [Example 110, 2-[4-(1,10-difluoro-7-methyl-6,7-dihydro-4H-3,4,7-triazadibenzo[cd,f]azulen-5-yl)-3,6-dihydropyridin-1(2H)-yl]-N-(2,3-dihydroxypropyl)-N-methylacetamide]: the negative logarithm of the IC50 (pIC50) in the test on H929 cells was 7.85; against CDK9/Cyclin T1 it was 7.35.
